# US20250171438A1 (Agios Pharmaceuticals, Inc., priority 2022, published 2025)
# Biological target: T1, human PAH with the R408W mutation (Homo sapiens, UniProt P00439, R408W)
# T1 construct: expressed in transfected cells
# T1 sequence (P00439 1-452 R408W): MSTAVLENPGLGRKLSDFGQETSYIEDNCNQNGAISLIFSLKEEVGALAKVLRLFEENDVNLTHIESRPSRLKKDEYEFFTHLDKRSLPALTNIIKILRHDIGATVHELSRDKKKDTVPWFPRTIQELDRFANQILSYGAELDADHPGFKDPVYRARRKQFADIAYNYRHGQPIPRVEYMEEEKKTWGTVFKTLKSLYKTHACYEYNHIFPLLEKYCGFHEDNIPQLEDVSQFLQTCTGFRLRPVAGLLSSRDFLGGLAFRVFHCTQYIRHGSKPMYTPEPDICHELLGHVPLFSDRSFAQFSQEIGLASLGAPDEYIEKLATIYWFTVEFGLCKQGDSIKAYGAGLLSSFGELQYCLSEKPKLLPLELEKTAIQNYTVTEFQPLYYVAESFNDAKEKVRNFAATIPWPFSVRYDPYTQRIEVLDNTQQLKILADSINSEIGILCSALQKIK
# Experiment: Cell Based Phenylalanine Flux Assay
# Conditions: A375 cells expressing human R408W PAH; 24 hrs compound incubation; 13C-Tyrosine by LC-MS; average where tested multiple times; read-out: AC50
row,SMILES,AC50 [nM]
1,"O=C(C1CN(c2ncccc2F)C1)N1CCc2[nH]cnc2[C@@H]1c1nc2ccccc2s1 [Example 1910, (R)-(4-(benzo[d]thiazol-2-yl)-6,7-dihydro-1H-imidazo[4,5-c]pyridin-5(4H)-yl)(1-(3-fluoropyridin-2-yl)azetidin-3-yl)methanone]",> 5000
2,"N#Cc1nc(OCCC(F)(F)F)oc1C(=O)N1CCc2[nH]cnc2[C@@H]1c1nc2ccccc2s1 [Example 1673, (R)-5-(4-(benzo[d]thiazol-2-yl)-4,5,6,7-tetrahydro-1H-imidazo[4,5-c]pyridine-5-carbonyl)-2-(3,3,3-trifluoropropoxy)oxazole-4-carbonitrile]",> 5000
3,O=C(c1nnc(-c2cn[nH]c2)o1)N1CCc2[nH]cnc2[C@H]1c1nc2ccccc2s1 [Example 1921],500 to 1000
4,"O=C(c1ncco1)N1CCc2[nH]cnc2[C@H]1c1nc2c(F)cccc2s1 [Example 1225, (S)-(4-(4-fluorobenzo[d]thiazol-2-yl)-6,7-dihydro-1H-imidazo[4,5-c]pyridin-5(4H)-yl)(oxazol-2-yl)methanone]",500 to 1000
5,"O=C(c1oc(-c2ccccn2)nc1C(F)(F)F)N1CCCc2[nH]cnc2[C@@H]1c1nc2ccccc2s1 [Example 2122, (R)-(4-(benzo[d]thiazol-2-yl)-7,8-dihydroimidazo[4,5-c]azepin-5(1H,4H,6H)-yl)(2-(pyridin-2-yl)-4-(trifluoromethyl)oxazol-5-yl)methanone]",1000 to 5000
6,"CC(C)(F)c1ccc2c(C(=O)N3CCc4[nH]cnc4[C@H]3c3nc4c(F)cccc4s3)cnn2c1 [Example 1489, (S)-(4-(4-fluorobenzo[d]thiazol-2-yl)-6,7-dihydro-1H-imidazo[4,5-c]pyridin-5(4H)-yl)(6-(2-fluoropropan-2-yl)pyrazolo[1,5-a]pyridin-3-yl)methanone]",500 to 1000
7,"O=C(c1oc(-c2ccccn2)nc1C(F)(F)F)N1CC2(CC2)c2[nH]cnc2[C@H]1c1nc2ccccc2s1 [Example 1681, (S)-(4′-(benzo[d]thiazol-2-yl)spiro[cyclopropane-1,7′-imidazo[4,5-c]pyridin]-5′(1′H,4′H,6′H)-yl)(2-(pyridin-2-yl)-4-(trifluoromethyl)oxazol-5-yl)methanone]",500 to 1000
8,"O=C(c1oc(N2CCOCC2)nc1C(F)(F)F)N1CCc2[nH]cnc2[C@H]1c1nc2c(F)cccc2s1 [Example 1597, (S)-(4-(4-fluorobenzo[d]thiazol-2-yl)-6,7-dihydro-1H-imidazo[4,5-c]pyridin-5(4H)-yl)(2-morpholino-4-(trifluoromethyl)oxazol-5-yl)methanone]",< 500
9,O=C(c1cnn(-c2ccccn2)c1Cl)N1CCc2[nH]cnc2[C@H]1c1nc2ccccc2s1 [Example 1895],500 to 1000
10,"Cc1nnc(C(=O)N2CCc3[nH]cnc3[C@@H]2c2nc3c(F)cccc3s2)s1 [Example 1251, (R)-(4-(4-fluorobenzo[d]thiazol-2-yl)-6,7-dihydro-1H-imidazo[4,5-c]pyridin-5(4H)-yl)(5-methyl-1,3,4-thiadiazol-2-yl)methanone]",> 5000
11,"COc1ccn2ncc(C(=O)N3CCc4[nH]cnc4[C@H]3c3nc4c(F)cccc4s3)c2c1 [Example 1197, (S)-(4-(4-fluorobenzo[d]thiazol-2-yl)-6,7-dihydro-1H-imidazo[4,5-c]pyridin-5(4H)-yl)(5-methoxypyrazolo[1,5-a]pyridin-3-yl)methanone]",500 to 1000
12,"O=C(c1ocnc1C1CC1)N1CC2(CC2)c2[nH]cnc2[C@@H]1c1nc2ccccc2s1 [Example 1670, (R)-(4′-(benzo[d]thiazol-2-yl)spiro[cyclopropane-1,7′-imidazo[4,5-c]pyridin]-5′(1′H,4′H,6′H)-yl)(4-cyclopropyloxazol-5-yl)methanone]",1000 to 5000
13,"O=C(c1oc(-c2ccccn2)nc1C(F)(F)F)N1CCc2[nH]cnc2[C@@H]1c1nc2c(F)cccc2s1 [Example 1612, (R)-(4-(4-fluorobenzo[d]thiazol-2-yl)-6,7-dihydro-1H-imidazo[4,5-c]pyridin-5(4H)-yl)(2-(pyridin-2-yl)-4-(trifluoromethyl)oxazol-5-yl)methanone]",< 500
14,"O=C(c1cnc(C(F)F)s1)N1CCc2[nH]cnc2[C@@H]1c1nc2ccccc2s1 [Example 1522, (R)-(4-(benzo[d]thiazol-2-yl)-6,7-dihydro-1H-imidazo[4,5-c]pyridin-5(4H)-yl)(2-(difluoromethyl)thiazol-5-yl)methanone]",1000 to 5000
15,"O=C(c1cncs1)N1CCc2[nH]cnc2[C@@H]1c1nc2cccc(F)c2s1 [Example 1234, (R)-(4-(7-fluorobenzo[d]thiazol-2-yl)-6,7-dihydro-1H-imidazo[4,5-c]pyridin-5(4H)-yl)(thiazol-5-yl)methanone]",1000 to 5000
16,"O=C(C1CCC1)N1CCc2[nH]cnc2[C@@H]1c1nc2ccccc2s1 [Example 1154, (R)-(4-(benzo[d]thiazol-2-yl)-6,7-dihydro-1H-imidazo[4,5-c]pyridin-5(4H)-yl)(cyclobutyl)methanone]",> 5000
17,"CC(C)(C)CCC(=O)N1CCc2[nH]cnc2[C@@H]1c1nc2ccccc2[nH]1 [Example 906, (R)-1-(4-(1H-benzo[d]imidazol-2-yl)-6,7-dihydro-1H-imidazo[4,5-c]pyridin-5(4H)-yl)-4,4-dimethylpentan-1-one]",1000 to 5000
18,O=C(c1nc2c(F)cccc2s1)N1CCc2[nH]cnc2[C@H]1c1nc2ccccc2s1 [Example 1092],500 to 1000
19,"O=C(CCC1CC1)N1CCc2[nH]cnc2[C@@H]1c1nc2ccccc2s1 [Example 1022, (R)-1-(4-(benzo[d]thiazol-2-yl)-6,7-dihydro-1H-imidazo[4,5-c]pyridin-5(4H)-yl)-3-cyclopropylpropan-1-one]",1000 to 5000
20,O=C(c1cnn2cc(CN3CCC(F)(F)C3)ccc12)N1CCc2[nH]cnc2[C@H]1c1nc2ccccc2s1 [Example 1313],500 to 1000
21,"O=C(c1cnc(C(F)(F)F)o1)N1CCc2[nH]cnc2[C@@H]1c1nc2ccccc2s1 [Example 1348, (R)-(4-(benzo[d]thiazol-2-yl)-6,7-dihydro-1H-imidazo[4,5-c]pyridin-5(4H)-yl)(2-(trifluoromethyl)oxazol-5-yl)methanone]",1000 to 5000
22,"O=C(c1cnc(-c2ccc(F)cc2)o1)N1CCc2[nH]cnc2[C@@H]1c1nc2ccccc2s1 [Example 2118, (R)-(4-(benzo[d]thiazol-2-yl)-6,7-dihydro-1H-imidazo[4,5-c]pyridin-5(4H)-yl)(2-(4-fluorophenyl)oxazol-5-yl)methanone]",1000 to 5000
23,O=C(c1cnc(C2CC2)o1)N1CCc2[nH]cnc2[C@H]1c1nc2c(F)cccc2s1 [Example 1329],< 500
24,"c1ccc2sc([C@H]3c4nc[nH]c4CCN3CCC3CC3)nc2c1 [Example 1275, (R)-2-(5-(2-cyclopropylethyl)-4,5,6,7-tetrahydro-1H-imidazo[4,5-c]pyridin-4-yl)benzo[d]thiazole]",1000 to 5000
25,"Cn1ncc(C(=O)N2CCc3[nH]cnc3[C@@H]2c2nc3ccccc3s2)c1C(F)F [Example 1820, (R)-(4-(benzo[d]thiazol-2-yl)-6,7-dihydro-1H-imidazo[4,5-c]pyridin-5(4H)-yl)(5-(difluoromethyl)-1-methyl-1H-pyrazol-4-yl)methanone]",> 5000
26,"CC1(C(=O)N2CCc3[nH]cnc3[C@H]2c2nc3ccccc3s2)CC1(F)F (single isomer, unassigned) [Example 1292]",1000 to 5000
27,"O=C(c1cnn2ccc(Br)cc12)N1CCc2[nH]cnc2[C@@H]1c1nc2c(F)cccc2s1 [Example 1172, (R)-(5-bromopyrazolo[1,5-a]pyridin-3-yl)(4-(4-fluorobenzo[d]thiazol-2-yl)-6,7-dihydro-1H-imidazo[4,5-c]pyridin-5(4H)-yl)methanone]",500 to 1000
28,"O=C(c1cnn2ccc(Br)cc12)N1CCc2[nH]cnc2[C@@H]1c1nc2ccc(F)cc2s1 [Example 1138, (R)-(5-bromopyrazolo[1,5-a]pyridin-3-yl)(4-(6-fluorobenzo[d]thiazol-2-yl)-6,7-dihydro-1H-imidazo[4,5-c]pyridin-5(4H)-yl)methanone]",1000 to 5000

# Same assay, conditions: A375 cells expressing human R408W PAH; 24 hrs with compound; 13C-Tyrosine by LC-MS; average where tested multiple times; read-out: AC50
row,SMILES,AC50 [nM]
1,O=C(c1nsc2ccccc12)N1CCc2[nH]cnc2C1c1nc2ccccc2s1 (stereo not drawn),1000 to 5000
2,CC(C)(O)c1cc(C(=O)N2CCc3[nH]cnc3C2c2nc3ccccc3s2)on1 (stereo not drawn),> 5000
3,COc1ccn2ncc(C(=O)N3CCc4[nH]cnc4C3c3nc4ccc(Cl)cc4[nH]3)c2c1 (stereo not drawn),1000 to 5000
4,O=C(c1nc2ccc(F)cc2s1)N1CCc2[nH]cnc2C1c1nc2ccccc2s1 (stereo not drawn),> 5000
5,O=C(c1ncco1)N1CCc2[nH]cnc2C1c1nc2ccccc2s1 (stereo not drawn),1000 to 5000
6,O=C(c1nnc(C2CNC2)o1)N1CCc2[nH]cnc2C1c1nc2ccccc2s1 (stereo not drawn),> 5000
7,O=C(c1cnn2cccc(F)c12)N1CCc2[nH]cnc2C1c1nc2cc(F)ccc2s1 (stereo not drawn),> 5000
8,c1ccc2[nH]c(C3c4nc[nH]c4CCN3CCCc3nccs3)nc2c1 (stereo not drawn),1000 to 5000
9,O=C(CCc1nnc(C(F)F)o1)N1CCc2[nH]cnc2C1c1nc2ccccc2s1 (stereo not drawn),1000 to 5000
10,O=C(c1ncco1)N1CCc2[nH]cnc2C1c1nc2ccc(F)cc2s1 (stereo not drawn),> 5000
11,O=C(CCc1ccc(F)cc1)N1CCc2[nH]cnc2C1c1nc2ccccc2[nH]1 (stereo not drawn),> 5000
12,CS(=O)(=O)c1ncoc1C(=O)N1CCc2[nH]cnc2C1c1nc2ccccc2s1 (stereo not drawn),> 5000
13,"O=C(c1nncs1)N1CCc2[nH]cnc2[C@H]1c1nc2ccccc2[nH]1 (single isomer, unassigned)",1000 to 5000
14,N#Cc1ccn2ncc(C(=O)N3CCc4[nH]cnc4C3c3nc4ccc(Br)cc4[nH]3)c2c1 (stereo not drawn),> 5000
